Data: ChEMBL document CHEMBL1201862, “PubChem BioAssay data set” (2004)
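Results reflect a 48-hour exposure of cells in 96-well plates to compound at five concentrations. At the GI50, growth is halved.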 Calls of active or inactive are those of the source. Cut-off read from the data, not from the text of the source: active = GI50 up to about 1.1 µM and inactive = higher.

Experiments:
Assay in all cases: inhibition of tumour cell growth, NCI panel, 48 h
DMS-114 = tested on: DMS-114
CAKI-1 = tested on: CAKI-1
RPMI-8226 = tested on: RPMI-8226
SN12C = tested on: SN12C
NCI-H23 = tested on: NCI-H23
HCC 2998 = tested on: HCC 2998
DMS-273 = tested on: DMS-273
Malme-3M = tested on: Malme-3M
SNB-75 = tested on: SNB-75
UACC-257 = tested on: UACC-257
COLO 205 = tested on: COLO 205
HT-29 = tested on: HT-29
NCI-H522 = tested on: NCI-H522
SNB-78 = tested on: SNB-78
UACC-62 = tested on: UACC-62
LXFL 529 = tested on: LXFL 529
A549 = tested on: A549
A498 = tested on: A498
HOP-92 = tested on: HOP-92
LOX IMVI = tested on: LOX IMVI
KM12 = tested on: KM12
M14 = tested on: M14
SNB-19 = tested on: SNB-19
RXF 393 = tested on: RXF 393
CCRF-CEM = tested on: CCRF-CEM
M19-MEL = tested on: M19-MEL
SK-MEL-5 = tested on: SK-MEL-5
HCT-116 = tested on: HCT-116
SF-295 = tested on: SF-295
HCT-15 = tested on: HCT-15
U-251 = tested on: U-251
XF498 = tested on: XF498
SF-539 = tested on: SF-539
SF-268 = tested on: SF-268
TK-10 = tested on: TK-10
HL-60 = tested on: HL-60
SK-MEL-2 = tested on: SK-MEL-2
NCI-H460 = tested on: NCI-H460
SK-MEL-28 = tested on: SK-MEL-28
HOP-62 = tested on: HOP-62
DLD-1 = tested on: DLD-1
OVCAR-4 = tested on: OVCAR-4
IGROV-1 = tested on: IGROV-1
OVCAR-3 = tested on: OVCAR-3
SW-620 = tested on: SW-620
EKVX = tested on: EKVX
OVCAR-8 = tested on: OVCAR-8
RXF 631 = tested on: RXF 631
SK-OV-3 = tested on: SK-OV-3
UO-31 = tested on: UO-31
K562 = tested on: K562
786-0 = tested on: 786-0
KM-20L2 = tested on: KM-20L2
NCI-H226 = tested on: NCI-H226
MOLT-4 = tested on: MOLT-4
OVCAR-5 = tested on: OVCAR-5
HOP-18 = tested on: HOP-18
ACHN = tested on: ACHN

For `O=CC1=CCCC2(C1)OCCO2`, the GI50 (DMS-114) was > 100 µM (inactive), the GI50 (CAKI-1) was > 100 µM (inactive) and the GI50 (RPMI-8226) was > 100 µM (inactive). For the same compound, the GI50 (SN12C) was > 100 µM (inactive), the GI50 (NCI-H23) was > 100 µM (inactive) and the GI50 (HCC 2998) was > 100 µM (inactive). For the same compound, the GI50 (DMS-273) was > 100 µM (inactive), the GI50 (Malme-3M) was > 100 µM (inactive) and the GI50 (SNB-75) was 4.95 µM (inactive). For the same compound, the GI50 (UACC-257) was > 100 µM (inactive), the GI50 (COLO 205) was > 100 µM (inactive) and the GI50 (HT-29) was > 100 µM (inactive). For the same compound, the GI50 (NCI-H522) was > 100 µM (inactive), the GI50 (SNB-78) was > 100 µM (inactive) and the GI50 (UACC-62) was > 100 µM (inactive). The GI50 (LXFL 529) was > 100 µM (inactive), the GI50 (A549) was > 100 µM (inactive) and the GI50 (A498) was > 100 µM (inactive). The GI50 (HOP-92) was > 100 µM (inactive), the GI50 (LOX IMVI) was > 100 µM (inactive) and the GI50 (KM12) was > 100 µM (inactive). For the same compound, the GI50 (M14) was > 100 µM (inactive), the GI50 (SNB-19) was > 100 µM (inactive) and the GI50 (RXF 393) was > 100 µM (inactive). The GI50 (CCRF-CEM) was > 100 µM (inactive), the GI50 (M19-MEL) was > 100 µM (inactive) and the GI50 (SK-MEL-5) was > 100 µM (inactive). The GI50 (HCT-116) was > 100 µM (inactive), the GI50 (SF-295) was > 100 µM (inactive) and the GI50 (HCT-15) was over 100 µM. The GI50 (U-251) was > 100 µM (inactive), the GI50 (XF498) was > 100 µM (inactive) and the GI50 (SF-539) was > 100 µM (inactive). The GI50 (SF-268) was > 100 µM (inactive), the GI50 (TK-10) was > 100 µM (inactive) and the GI50 (HL-60) was > 100 µM (inactive). The GI50 (SK-MEL-2) was > 100 µM (inactive), the GI50 (NCI-H460) was > 100 µM (inactive) and the GI50 (SK-MEL-28) was > 100 µM (inactive). The GI50 (HOP-62) was > 100 µM (inactive), the GI50 (DLD-1) was > 100 µM (inactive) and the GI50 (OVCAR-4) was > 100 µM (inactive). For the same compound, the GI50 (IGROV-1) was > 100 µM (inactive), the GI50 (OVCAR-3) was > 100 µM (inactive) and the GI50 (SW-620) was > 100 µM (inactive). For the same compound, the GI50 (EKVX) was > 100 µM (inactive), the GI50 (OVCAR-8) was > 100 µM (inactive) and the GI50 (RXF 631) was > 100 µM (inactive). For the same compound, the GI50 (SK-OV-3) was > 100 µM (inactive), the GI50 (UO-31) was > 100 µM (inactive) and the GI50 (K562) was > 100 µM (inactive). The GI50 (786-0) was > 100 µM (inactive).
With `O=C1C[C@H]2CCCN2[C@@H](c2ccccc2)C1` the GI50 (KM-20L2) was > 100 µM (inactive), the GI50 (NCI-H226) was > 100 µM (inactive) and the GI50 (CAKI-1) was > 100 µM (inactive). The GI50 (RPMI-8226) was > 100 µM (inactive), the GI50 (SN12C) was > 100 µM (inactive) and the GI50 (NCI-H23) was > 100 µM (inactive). For the same compound, the GI50 (HCC 2998) was > 100 µM (inactive), the GI50 (DMS-273) was > 100 µM (inactive) and the GI50 (Malme-3M) was > 100 µM (inactive). For the same compound, the GI50 (MOLT-4) was > 100 µM (inactive), the GI50 (SNB-75) was > 100 µM (inactive) and the GI50 (UACC-257) was > 100 µM (inactive). For the same compound, the GI50 (COLO 205) was > 100 µM (inactive), the GI50 (HT-29) was > 100 µM (inactive) and the GI50 (NCI-H522) was > 100 µM (inactive). For the same compound, the GI50 (SNB-78) was > 100 µM (inactive), the GI50 (UACC-62) was > 100 µM (inactive) and the GI50 (LXFL 529) was > 100 µM (inactive). The GI50 (OVCAR-5) was > 100 µM (inactive), the GI50 (A549) was > 100 µM (inactive) and the GI50 (HOP-18) was > 100 µM (inactive). The GI50 (A498) was > 100 µM (inactive), the GI50 (HOP-92) was > 100 µM (inactive) and the GI50 (LOX IMVI) was > 100 µM (inactive). For the same compound, the GI50 (KM12) was > 100 µM (inactive), the GI50 (M14) was > 100 µM (inactive) and the GI50 (SNB-19) was > 100 µM (inactive). For the same compound, the GI50 (RXF 393) was > 100 µM (inactive), the GI50 (CCRF-CEM) was > 100 µM (inactive) and the GI50 (M19-MEL) was > 100 µM (inactive). For the same compound, the GI50 (SK-MEL-5) was > 100 µM (inactive), the GI50 (HCT-116) was > 100 µM (inactive) and the GI50 (SF-295) was > 100 µM (inactive). For the same compound, the GI50 (HCT-15) was over 100 µM, the GI50 (U-251) was > 100 µM (inactive) and the GI50 (XF498) was > 100 µM (inactive). The GI50 (SF-539) was > 100 µM (inactive), the GI50 (ACHN) was > 100 µM (inactive) and the GI50 (SF-268) was > 100 µM (inactive). For the same compound, the GI50 (TK-10) was > 100 µM (inactive), the GI50 (HL-60) was > 100 µM (inactive) and the GI50 (SK-MEL-2) was > 100 µM (inactive). For the same compound, the GI50 (NCI-H460) was > 100 µM (inactive), the GI50 (SK-MEL-28) was > 100 µM (inactive) and the GI50 (HOP-62) was > 100 µM (inactive). The GI50 (OVCAR-4) was > 100 µM (inactive), the GI50 (IGROV-1) was > 100 µM (inactive) and the GI50 (OVCAR-3) was > 100 µM (inactive). For the same compound, the GI50 (SW-620) was > 100 µM (inactive), the GI50 (EKVX) was > 100 µM (inactive) and the GI50 (OVCAR-8) was > 100 µM (inactive). The GI50 (RXF 631) was > 100 µM (inactive), the GI50 (SK-OV-3) was > 100 µM (inactive) and the GI50 (UO-31) was > 100 µM (inactive). For the same compound, the GI50 (K562) was > 100 µM (inactive) and the GI50 (786-0) was > 100 µM (inactive).
